Test [1] concerns full-length mouse Plk4-YFP. The experiment in a line: Plk4 stabilization assay, Plk4-YFP DLD-1 cells. It counts as cell-based, human. The settings on record: 250 nM, 24 hours. The protocol: Plk4 stabilization assay. Expression was induced in Plk4-YFP DLD-1 cells using 1 μg/ml doxycycline. At the same time, cells were treated with the indicated concentrations of compounds. Cells were incubated for 24 hours before harvesting for Western blotting (see below).
Western blotting. […] Cell extracts were stored at −80° C. until use.

In the next test the test system is HeLa cells. Description: Quantification of centrosome numbers from fixed samples, HeLa. Type of test: cell-based, human. The settings on record: HeLa, 50 or 100 nM. Here is the method: Quantification of centrosome numbers from fixed samples. Cells were seeded onto poly-D-lysine-coated coverslips (Neuvitro) in 12-well plates at least 8 hours before fixation. At the required timepoints for each experiment, cells were washed once with PBS and fixed in 100% methanol (−20° C., 5 minutes). Fixed cells were washed with PBS, blocked with PBS+4% BSA+0.1% Triton X-100, and stained with primary antibodies against γ-tubulin and Cep192, which localize to the pericentriolar material and proximal to the outer centriole wall, respectively (47, 48). Alexa488-labeled anti-mouse secondary antibody (against anti-γ-tubulin) and Alexa647-labeled anti-rabbit secondary antibody (against anti-Cep192) were both used at 1.5 jag/mL. Samples were mounted onto slides with Prolong Gold antifade reagent (Life Technologies). Images of fixed interphase cells were acquired on a Nikon Eclipse E800 with a 60×1.4 NA PlanApo objective and ORCA-ER camera (Hamamatsu) using Metamorph software (Molecular Devices). Quantification of foci was performed manually. A focus was defined as a bona-fide centrosome if it was positive for both γ-tubulin and Cep192 (true for >95% of foci).

For a further test, the system named is RPE1 cells. The experiment in a line: Analysis of mitosis and daughter cell fate, RPE1. It counts as cell-based, human. The settings on record: RPE1, only mitotic events with clear missegregation, FIG. 18B. Here is the method: Analysis of mitosis and daughter cell fate. […] Cells were seeded into 96-well cycloolefin plates at 5000 cells/well, 8-10 hours before imaging. Movies were acquired on the CV1000 with a 40×0.95 NA U-PlanApo objective. The imaging chamber was maintained at 37° C. and 5% CO2. Image acquisition and data analysis were performed using CellVoyager software. 20 fields/well were imaged. For HeLa and NIH/3T3 cells, 5×2 μm z-sections in the GFP (25% power, 125 ms, 30% gain) and RFP (25% power, 100 ms, 30% gain) channels were captured in each field, at 5-minute intervals for 24 hours. For RPE1 cells, 5×2 μm z-sections in the GFP (20% power, 100 ms, 30% gain) and RFP (25% power, 100 ms, 30% gain) channels were captured in each field, at 5-minute intervals for 8 hours. To track RPE1 daughter cell fate, imaging was then switched to 3×4 μm z-sections in the RFP channel only, at 10-minute intervals for 48 hours. Mitosis was measured from nuclear envelope breakdown to anaphase onset (or arrest). Results represent combined measurements of 100 mother cells per condition from 2-4 independent experiments.
To study the correlation between mother cell prometaphase duration and daughter cell fate, RPE1 cells co-expressing centrin-GFP and H2B-RFP were seeded into 96-well cycloolefin plates at 5000 cells/well, 8-10 hours before imaging. Cells were treated with 80 nM nocodazole and immediately imaged on the CV1000 system with a 40×0.95 NA U-PlanApo objective. The imaging chamber was maintained at 37° C. and 5% CO2. 20 fields/well were imaged. 5×2 Lm z-sections in the GFP (20% power, 100 ms, 30% gain) and RFP (25% power, 100 ms, 30% gain) channels were captured in each field, at 5-minute intervals for 6 hours. The plate was then removed from the microscope, and wells were washed 6 times with warm medium. The plate was returned to the microscope, and imaging was resumed, capturing 3×4 Lm z-sections in the RFP channel only, at 10-minute intervals for 50 hours. To study the effect of chromosome missegregation on daughter cell fate, cells were treated with 1 LM NMS-P715 to inhibit the spindle assembly checkpoint kinase Mps1, then imaged as described above. Only mitotic events with clear missegregation (lagging chromosomes and subsequent formation of daughter cells with micronuclei) were analyzed. For both experiments, results represent combined measurements of 100 mother cells from 2 independent experiments.

In test [2] the target is T1, human Plk4 kinase domain (aa 2-275) (Homo sapiens, UniProt O00444).
T1 construct: purified 6×His-tagged human Plk4 kinase domain (aa 2-275); 6xHis; made in house; host or cells: E. coli
T1 sequence (O00444 2-275): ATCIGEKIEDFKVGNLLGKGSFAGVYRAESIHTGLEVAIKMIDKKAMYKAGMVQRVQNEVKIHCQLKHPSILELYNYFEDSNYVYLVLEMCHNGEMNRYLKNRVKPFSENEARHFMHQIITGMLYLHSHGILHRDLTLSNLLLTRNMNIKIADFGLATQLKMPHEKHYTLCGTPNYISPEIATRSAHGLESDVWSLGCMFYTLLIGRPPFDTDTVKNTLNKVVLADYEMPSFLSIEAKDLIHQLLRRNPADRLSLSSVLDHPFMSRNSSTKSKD
The experiment in a line: Plk4 kinase assay (ADP-Glo). It counts as biochemical. The settings on record: Table 1. Put shortly: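 Enzyme at 2.5-10 nM final, pH 8.0, reacted 4-16 hours at 25° C; ADP generation read by ADP-Glo luminescence. Ki derived from IC50 by Cheng-Prusoff or, for tight binders, Copeland formalism.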
On the technique in general: In ADP-Glo the light output rises with the ADP produced.

“Also recorded” adds a separate entry of the source.

One may read the IC50 as the point on the concentration scale where inhibition reaches its midpoint. A high value points to lower potency.

In the case of `COc1ccc2c(c1)[C@]1(C[C@H]1c1ccc3c(/C=C/c4ccc(CN5C[C@@H](C)O[C@@H](C)C5)cc4)n[nH]c3c1)C(=O)N2` (relative stereo) [CFI-400945, (1R,2S).2-(3-((E).4-(((cis).2,6-dimethylmorpholino)methyl)styryl). 1H.indazol-6-yl)-5′-methoxyspiro[cyclopropane-1,3′-indolin]-2′-one, reference compound], the Plk4-YFP stabilization entry in test [1] is “only slight Plk4-YFP stabilization”. Moreover, the “nuclear morphology and division” value with HeLa cells was “become grossly multinuclear”. In addition, the “effect on centrosome number” value in the test on HeLa cells (3 days) is “causes centrosome amplification; also recorded: does not deplete centrioles from cells; also recorded: induces centrosome amplification”.

As for `CCc1cccc(CC)c1NC(=O)c1nn(C)c2c1CCc1cnc(Nc3ccc(C(=O)NC4CCN(C)CC4)cc3OC(F)(F)F)nc1-2` [NMS-P715], in the test on RPE1 cells, the “percentage of daughters not dividing within 48 hours” value was 11.4%.

The compound `CCOc1c(Nc2cc(C)[nH]n2)nc(Sc2ccc(NC(=O)C3CC3)cc2)nc1N(C)CC` [drawing 124] came in with an IC50 in test [2] below 1000 nM.

As for `CCOc1c(Nc2cc(C)[nH]n2)nc(Sc2ccc(NC(=O)C3CC3)cc2)nc1N(C)C` [drawing 125], the IC50 in test [2] is below 1000 nM.

`CCOc1c(Nc2cc(C)[nH]n2)nc(Sc2ccc(NC(=O)C3CC3)cc2)nc1N1CCNCC1` [drawing 126] displayed an IC50 in test [2] of 100 to 1000 nM.

Regarding `CCOc1c(Nc2cc(C)[nH]n2)nc(Sc2ccc(NC(=O)C3CC3)cc2)nc1N(CC)CC` [drawing 127], the concentration for half-maximal inhibition (IC50) in test [2] lay within 100 to 1000 nM.

As to `CCOc1c(Nc2cc(C)[nH]n2)nc(Sc2ccc(NC(=O)C3CC3)cc2)nc1N(C)CC` [drawing 128], in test [2], the IC50 fell in the range of 100 to 1000 nM.

`CCOc1c(Nc2cc(C)[nH]n2)nc(Sc2ccc(NC(=O)C3CC3)cc2)nc1N(C)C` [drawing 129] returned a concentration for half-maximal inhibition (IC50) in test [2] of 100 to 1000 nM.

`COc1c(Nc2cc(C)[nH]n2)nc(Sc2ccc(S(=O)(=O)Cc3cccc([N+](=O)[O-])c3F)cc2F)nc1N1CCCCC1` [drawing 379]: the half-maximal inhibitory concentration (IC50) in test [2] was below 1000 nM.

Values taken from patent US10752612B2, “PLK4 inhibitors” (LUDWIG INSTITUTE FOR CANCER RESEARCH LTD, priority 2015, dated 2020).
